Measurements as given in the NIST ThermoML archive (doi:10.1016/j.jct.2013.02.020).
Numbers after ± are expanded uncertainties.

Assay: not given
Details: 298.15 K, Wilhelmy plate method

SMILES	surface tension liquid-gas [mN/m]
c1ccsc1 [thiophene]	31.7 ± 0.3
CCOS(=O)(=O)[O-].CCn1cc[n+](C)c1 [1-ethyl-3-methylimidazolium ethyl sulfate]	48.4 ± 0.2
CCn1cc[n+](C)c1.CS(=O)(=O)[O-] [1-ethyl-3-methylimidazolium methanesulfonate]	51.2 ± 0.3
c1ccncc1 [pyridine]	37.5 ± 0.4
CC(=O)[O-].CCn1cc[n+](C)c1 [1-ethyl-3-methylimidazolium acetate]	43.5 ± 0.2

Same assay, conditions: 298.15 K; 100 kPa; Liquid; Vibrating tube method

SMILES	mass density [kg/m3]
c1ccsc1 [thiophene]	1058.44 ± 2.4
CCOS(=O)(=O)[O-].CCn1cc[n+](C)c1 [1-ethyl-3-methylimidazolium ethyl sulfate]	1234.53 ± 2.2
CCn1cc[n+](C)c1.CS(=O)(=O)[O-] [1-ethyl-3-methylimidazolium methanesulfonate]	1242.52 ± 2.2
c1ccncc1 [pyridine]	978.25 ± 2.3
CC(=O)[O-].CCn1cc[n+](C)c1 [1-ethyl-3-methylimidazolium acetate]	1097.37 ± 2.2

Assay: refractive index (Na D-line) (dimensionless)
Details: 298.15 K; 100 kPa; Liquid; Standard Abbe refractometry

SMILES	refractive index
c1ccsc1 [thiophene]	1.5271 ± 0.0006
CCOS(=O)(=O)[O-].CCn1cc[n+](C)c1 [1-ethyl-3-methylimidazolium ethyl sulfate]	1.4771 ± 0.0005
CCn1cc[n+](C)c1.CS(=O)(=O)[O-] [1-ethyl-3-methylimidazolium methanesulfonate]	1.4962 ± 0.0005
c1ccncc1 [pyridine]	1.5072 ± 0.0006
CC(=O)[O-].CCn1cc[n+](C)c1 [1-ethyl-3-methylimidazolium acetate]	1.5012 ± 0.0005
